Results on 5 compounds are retold here after US20120165319A1, “INHIBITORS OF INTERLEUKIN-1 BETA CONVERTING ENZYME” (VERTEX PHARMACEUTICALS INCORPORATED, priority 1995, published 2012).

For series [1], the system named is IL-1β, human PBMC. Put plainly: Human PBMC assay (Example 27): IL-1β production. It is filed as cell-based. The note with it: LPS-stimulated human PBMCs (FIG. 5); read-out: IC50, decrease of IL-1β production. As for the experimental part: (§1) Since the processing and secretion of biologically active IGIF is mediated by ICE, we compared the activity of a reversible ICE inhibitor (Ac-YVAD-CHO) on IL-1β and IFN-γ production in a peripheral blood mononuclear cell (PBMC) assay (Examples 27).
(§2) Human buffy coat cells were obtained from blood donors and peripheral blood mononuclear cells (PBMC) were isolated by centrifugation in LeukoPrep tubes (Becton-Dickinson, Lincoln Park, N.J.). PBMC were added (3×10^6/well) to 24 well Corning tissue culture plates and after 1 hr incubation at 37° C., non-adherent cells were removed by gently washing. Adherent mononuclear cells were stimulated with LPS (1 μg/ml) with or without ICE inhibitor in 2 ml RPMI-1640-10% FBS. After 16-18 hr incubation at 37° C., IGIF and IFN-γ were quantitated in culture supernatants by ELISA.

Series [2] has as its system IFN-γ, human PBMC. Put plainly: Human PBMC assay (Example 27): IFN-γ production. In kind it is cell-based. Particulars: LPS-stimulated human PBMCs (FIG. 5); read-out: IC50, decrease of IFN-γ production. The protocol:
as §1, §2

Series [3] has as its system IL-1β levels in the peritoneal fluid, carrageenan-challenged mice. Description: Mouse carrageenan peritoneal inflammation. It is filed as in vivo. Particulars: for Inhibition (%) of IL-1β production in carrageenan-challenged mice: oral. As for the experimental part: Mouse Carrageenan Peritoneal Inflammation
Inflammation was induced in mice with an intraperitoneal (IP) injection of 10 mg carrageenan in 0.5 ml of saline (Griswold et al., Inflammation, 13, pp. 727-739 (1989)). Drugs are administered by oral gavage in ethanol/PEG/water, β-cyclodextrin, labrosol/water or cremophor/water vehicle. The mice are sacrificed at 4 hours post carrageenan administration, then injected IP with 2 ml of saline containing 5 U/ml heparin. After gentle massage of the peritoneum, a small incision is made, the contents collected and volume recorded. Samples are kept on ice until centrifuged (130×g, 8 mins at 4° C.) to remove cellular material, and the resultant supernatant stored at −20° C. IL-1β levels in the peritoneal fluid are determined by ELISA.

Series [4] can be described thus: In vivo bioavailability determination (oral, rat). The note with it: for blood levels of drug when dosed orally: oral 10-100 mg/kg; for blood levels of drug when dosed orally / drug availability when dosed orally: result in words; for Drug Availability / Cmax / drug availability when dosed orally: oral; for Cmax: aldehyde (drug) concentration. As for the experimental part: In Vivo Bioavailability Determination
The drugs (10-100 mg/kg) were dosed orally to rats (10 mL/kg) in ethanol/PEG/water, β-cyclodextrin, labrosol/water or cremophor/water. Blood samples were drawn from the carotid artery at 0.25, 0.50, 1, 1.5, 2, 3, 4, 6, and 8 hours after dosing, centrifuged to plasma and stored at −70° C. until analysis. Aldehyde concentrations were determined using an enzymatic assay. Pharmacokinetic analysis of data was performed by non-linear regression using RStrip (MicroMath Software, UT).

Series [5] deals with IL-1β production, LPS-challenged mice. Put plainly: In vivo acute assay for efficacy as anti-inflammatory agent: LPS-induced IL-1β production in mice. Details: species or system mouse. Particulars: for inhibition of IL-1β production after oral administration, dosed at time of LPS challenge: LPS-challenged mice, vehicles ethanol/PEG/water, β-cyclodextrin, labrosol/water or cremophor/water, result in words; for Inhibition (%) of IL-1β production in LPS-challenged mice: oral, dosed at time of LPS challenge. A digest of the protocol:
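Serum IL-1β was measured by ELISA 7 h after an IP dose of 20 mg/kg LPS in CD1 mice, n=6 per group. Compounds in olive oil/DMSO/ethanol 90:5:5 were injected IP 1 h post-LPS (some analogs were dosed at challenge), and separate groups received 50 mg/kg by oral gavage.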

Series [6] concerns male DBA/1J mice, type II collagen-induced arthritis. Description: Type II collagen-induced arthritis. It is filed as in vivo, mouse. The note with it: oral gavage twice a day 10, 25 and 50 mg/kg (214e: 50 mg/kg once a day), Arthritis Severity Score, result in words. As for the experimental part:
Type II Collagen-Induced Arthritis
Type II collagen-induced arthritis was established in male DBA/1J mice at described Wooley and Geiger (Wooley, P. H., Methods in Enzymology, 162, pp. 361-373 (1988) and Geiger, T., Clinical and Experimental Rheumatology, 11, pp. 515-522 (1993)). Chick sternum Type II collagen ([…] in 10 mM acetic acid) was emulsified with an equal volume of Freund's complete adjuvant (FCA) by repeated passages (400) between two 10 ml glass syringes with a gauge 16 double-hub needle. Mice were immunized by intradermal injection (50 μl; […], CII per mouse) of collagen emulsion 21 days later at the contra-lateral side of the tail base. Drugs were administered twice a day (10, 25 and 50 mg/kg) by oral gavage approximately 7 h apart. Vehicles used included ethanol/PEG/water, β-cyclodextrin, labrosol/water or cremophor/water. Drug treatments were initiated within 2 h of the CII booster immunization. Inflammation was scored on a 1 to 4 scale of increasing severity on the two front paws and the scores are added to give the final score.

The target of series [7] is T1, ICE (Homo sapiens, UniProt P29466).
T1 sequence (P29466 120-297 limits assumed): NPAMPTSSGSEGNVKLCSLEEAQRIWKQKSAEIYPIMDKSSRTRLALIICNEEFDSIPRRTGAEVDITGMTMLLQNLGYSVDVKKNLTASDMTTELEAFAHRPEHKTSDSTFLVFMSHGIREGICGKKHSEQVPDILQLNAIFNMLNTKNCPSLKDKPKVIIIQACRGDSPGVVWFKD
T1 sequence (P29466 317-404 limits assumed): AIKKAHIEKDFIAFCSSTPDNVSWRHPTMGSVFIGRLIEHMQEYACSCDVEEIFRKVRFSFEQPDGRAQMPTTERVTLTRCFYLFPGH
Put plainly: Enzyme assay with UV-visible substrate (visible ICE assay, Succinyl-Tyr-Val-Ala-Asp-pNitroanilide). In kind it is biochemical. The note with it: Table 5. In short, it runs like this: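 ICE preincubated with inhibitor in DMSO for 15 min at room temperature, then Suc-Tyr-Val-Ala-Asp-pNA added. pNA release read at 405-603 nm for 20 min at 37 °C, rate from linear fit in mOD/min. Ki and inhibition mode from fits of rates at varying inhibitor concentrations to standard kinetic equations.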

The test system of series [8] is IL-1β, human peripheral blood mononuclear cells (PBMC). Put plainly: PBMC cell assay: IL-1β assay with human PBMC or enriched adherent mononuclear cells, LPS-stimulated. In kind it is cell-based. Particulars: Homo sapiens, PBMC, * = values obtained upon reassay. In short, it runs like this: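 Mature IL-1β is measured by ELISA in supernatants after 16–18 hr at 37 °C, 5% CO2, with LPS (5 ng/ml final) and test compound (0.1% DMSO final). Cells are human PBMC (6×10^6 cells/ml) or plate-adherent mononuclear cells (2.5−3.0×10^5 per well), and the 5–6 compound concentrations span the ICE Ki.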

Series [9] is described as follows: Measurement of blood levels of prodrugs of 214e after p.o. dosing in mice. The note with it: p.o. 50 mg/kg in 0.5% carboxymethylcellulose, blood at 1 and 7 hours. In kind it is in vivo, mouse. As for the experimental part: Measurement of Blood Levels of Prodrugs of 214e
Mice were administered a p.o. dose of compounds 302 and 304a (50 mg/kg) prepared in 0.5% carboxymethylcellulose. Blood samples were collected at 1 and 7 hours after dosing. Serum was extracted by precipitation with an equal volume of acetonitrile containing 2% formic acid followed by centrifugation. The supernatant was analyzed by liquid chromatography-mass spectrometry (ESI-MS) with a detection level of 0.03 to 3 μg/ml.

Where [10] appears, read: LPS challenged mice, PO, 50 mg/kg, * = values obtained in subsequent assays (Table 4).

“Also recorded” adds a separate entry of the source.

The IC50 is the concentration needed to halve the response being measured. A word on the Cmax: it is the peak of the concentration-time curve. The Ki is a measure of affinity in units of concentration, obtained from inhibition or displacement.

Turning to “AcYVAD-CHO [Ac-YVAD-CHO, reference compound]”, the IC50 in series [1] and in [2] was 2500 nM in each case.

Regarding `O=C1C[C@H](NC(=O)[C@@H]2CCCN3C(=O)CC[C@H](NC(=O)c4nccc5ccccc45)C(=O)N23)[C@H](OC2CCCC2)O1` [Compound 412d, [1S,9S(2R,3S)]N-(2-Cyclopentoxy-5-oxotetrahydrofuran-3-yl)-6,10-dioxo-9-(isoquinolin-1-oylamino)-1,2,3,4,7,8,9,10-octahydro-6-H-pyridazino[1,2-a][1,2]diazepine-1-carboxamide], the “Inhibition (%) of IL-1β production in carrageenan-challenged mice” value is recorded as 0% in series [3] (dose 1 mg/kg); 32% in series [3] (dose 10 mg/kg); 31% in series [3] (dose 25 mg/kg); 36% in [3] (dose 50 mg/kg); 53% in [3] (dose 100 mg/kg). In addition, in series [4], the “blood levels of drug when dosed orally” value was “significant blood levels of drug”. The “Drug Availability” value in series [4] (dose 25 mg/kg) is 35%. The same compound displayed a Cmax in series [4] (dose 25 mg/kg) of 2600 ng/mL. Moreover, the “drug availability when dosed orally” value in [4] was “good drug availability”. Besides, in series [5], the “inhibition of IL-1β production after oral administration, dosed at time of LPS challenge” value (“inhibition … of LPS challenge” for short) is recorded as “inhibit IL-1β production”. For the same compound, the “inhibition of inflammation / progression of type II collagen-induced arthritis” value in series [6] is recorded as “inhibit inflammation; also recorded: blocks the progression”.

In the case of `COC1OC(=O)C[C@@H]1NC(=O)[C@@H]1CCCN2C(=O)CC[C@H](NC(=O)c3ccccc3)C(=O)N12` (stereo partly drawn) [Compound 304a, [1S,9S (2RS,3S)]9-Benzoylamino-6,10-dioxo-1,2,3,4,7,8,9,10-octahydro-N-(2-methoxy-5-oxo-tetrahydro-furan-3-yl)-6H-pyridazino[1,2-a][1,2]diazapine-1-carboxamide], affinity in [7] was put at a Ki of 200 nM. Besides, in series [8], the IC50 amounted to 1400 nM. For the same compound, in series [5] (setting [10]), the “Inhibition of IL-1β Production, compound administered 0 hr relative to LPS challenge” value was determined as 68%; the “Inhibition of IL-1β Production, compound administered +1 hr relative to LPS challenge” value is 37%; the “Inhibition of IL-1β Production, compound administered −1 hr relative to LPS challenge” value stood at 33%; the “Inhibition of IL-1β Production, compound administered −2 hr relative to LPS challenge” value is listed as 30%. In addition, the “blood levels when administered orally (in words)” value in [9] is given as “detectable blood levels”.

As for `O=C(CN1C(=O)[C@@H](NC(=O)c2nccc3ccccc23)CN(C(=O)CO)c2ccccc21)N[C@H]1CC(=O)OC1OCc1ccccc1` (mixture of isomers) [Compound 696a, (3S)-2-Oxo-3-(isoquinolin-1-oyl)amino-5-hydroxyacetyl-N-[(2RS,3S)-benzyloxy-5-oxo-tetrahydrofuran-3-yl]-2,3,4,5-tetrahydro-1H-1,5-benzodiazepine-1-acetamide], in [4], the “blood levels of drug when dosed orally” value is on record as “significant blood levels of drug” and the “drug availability when dosed orally” value is on record as “good drug availability”. In addition, in series [4] (dose 50 mg/kg), the “Drug Availability” value stood at 10% and the peak concentration (Cmax) is 1200 ng/mL. In series [5], the “inhibition … of LPS challenge” value is listed as “inhibit IL-1β production”. In addition, the “Inhibition (%) of IL-1β production in LPS-challenged mice” value (“Inhibition (%) … in LPS-challenged mice” below) in series [5] (10 mg/kg dose) turned out to be 0%. In [5] (25 mg/kg dose), the “Inhibition (%) … in LPS-challenged mice” value is 45%. For the same compound, the “Inhibition (%) … in LPS-challenged mice” value in series [5] (50 mg/kg dose) was found to be 52%. The “inhibition of inflammation / progression of type II collagen-induced arthritis” value in series [6] is on record as “inhibit inflammation; also recorded: blocks the progression”.

On to `CCO[C@@H]1OC(=O)C[C@@H]1NC(=O)[C@@H]1CCCN2C(=O)CC[C@H](NC(=O)c3nccc4ccccc34)C(=O)N12` [Compound 412f, [1S,9S(2R,3S)]N-(2-Ethoxy-5-oxotetrahydrofuran-3-yl)-6,10-dioxo-9-(isoquinolin-1-oylamino)-1,2,3,4,7,8,9,10-octahydro-6-H-pyridazino[1,2-a][1,2]diazepine-1-carboxamide], for which, in series [3] (oral administration, 214e at 50 mg/kg, result in words), the “inhibition of IL-1β production in carrageenan-challenged mice” value was “inhibits IL-1β production”. In addition, the “Inhibition (%) of IL-1β production in carrageenan-challenged mice” value in series [3] (dose 1 mg/kg) was found to be 30%; in [3] (dose 10 mg/kg), 54%; in series [3] (dose 25 mg/kg) it was 49%; in [3] (dose 50 mg/kg) it was 73%; in series [3] (dose 100 mg/kg), 75%. Besides, the “blood levels of drug when dosed orally” value in [4] is on record as “significant blood levels of drug”. Moreover, the “Drug Availability” value in series [4] (dose 25 mg/kg) is on record as 32%. In [4] (dose 25 mg/kg), this compound displayed a Cmax of 2400 ng/mL. The “drug availability when dosed orally” value in [4] is listed as “good drug availability”. The “inhibition … of LPS challenge” value in series [5] is on record as “inhibit IL-1β production”. For the same compound, the “Inhibition (%) … in LPS-challenged mice” value is given as 17% in [5] (10 mg/kg dose), 25% in series [5] (25 mg/kg dose) and 32% in series [5] (50 mg/kg dose). In [6], the “inhibition of inflammation / progression of type II collagen-induced arthritis” value is “inhibit inflammation; also recorded: blocks the progression”.
